Assay results as given in patent US20190031857A1, “BLACK-COLORED POLYAMIDE COMPOSITION AND PRODUCTION AND USE THEREOF” (BASF SE, priority 2016, published 2019).

Experiments:
[1] = Incorporation and coloring of the polymer by extrusion; details: attempted bulk coloring of polyethylene, above 160° C.
Protocol: 98 parts polyethylene (Grade M80064 from Sabic) were premixed in a tumbling mixer with 2 parts Solvent Black 28 (Orasol Black 045 from BASF) for 10 minutes and extruded in a twin-shaft extruder having a diameter of 18 mm and an L/D ratio of 44 at barrel temperature 210° C. A significant odor developed from the extruder nozzle; the polymer strands had expanded in the foam mold. The production of plaques by means of injection molding machines was not possible.
99.9 parts polyamide PA6 (Ultramid B3S from BASF) were premixed in a tumbling mixer with 0.1 part Solvent Violet 13 (Orasol Blue 640 from BASF) for 10 minutes and then extruded and pelletized using a twin-shaft extruder having a diameter of 18 mm and an L/D ratio of 44 at barrel temperature 260° C. For this purpose, the natural-colored polyamide pellets were dried beforehand in a drying oven at 100° C. for 4 hours, such that the moisture content was below 0.1%. For this purpose, the moisture content was determined by means of a thermal balance.

[2] = Solubility of Solvent Black 28 in solvents; format: physicochemical
Protocol: The chromium complex dye b) used in accordance with the invention is available under the name Solvent Black 28 (CAS no.: 12237-23-9, C.I. Solvent Black 28). A commercially available product is Orasol Black 045 from BASF SE. […] Solubility at 20° C. in ethanol is about 10 g/L and in methyl ethyl ketone about 400 g/L.

With Solvent Black 28 the “thermal stability in bulk coloring of polyethylene” value [1] was “entirely inadequate thermal stability”, the Solubility in ethanol ([2]; 20° C., ethanol) was “about 10 g/L” and the “Solubility in methyl ethyl ketone” value ([2]; 20° C., methyl ethyl ketone) was “about 400 g/L”. For the same substance, the Water solubility ([2]; water) was “almost water-insoluble”.
